# In ChEMBL document CHEMBL2069285, “Synthesis of N-(1-methyl-1H-indol-3-yl)methyleneamines and 3,3-diaryl-4-(1-methyl-1H-indol-3-yl)azetidin-2-ones as potential antileishmanial agents” (Bioorg Med Chem Lett, 2012):
# System: Leishmania major
# Test: Antileishmanial activity against promastigotes of Leishmania major after 72 hrs by neubauer counting chamber analysis
# Type: functional, organism-based
row,IC50,SMILES
1,0.6 µg/mL,Cn1cc(/C=N/C(c2ccccc2)c2ccccc2)c2ccccc21
2,0.6 µg/mL,Cn1cc(C2N(c3ccccc3)C(=O)C2(c2ccccc2)c2ccccc2)c2ccccc21 (stereo unspecified)
3,0.59 µg/mL,Cc1ccc(N2C(=O)C(c3ccccc3)(c3ccccc3)C2c2cn(C)c3ccccc23)cc1 (stereo unspecified)
4,0.56 µg/mL,CCOc1ccc(N2C(=O)C(c3ccccc3)(c3ccccc3)C2c2cn(C)c3ccccc23)cc1 (stereo unspecified)
5,0.76 µg/mL,Cn1cc(C2N(c3ccc(Cl)cc3)C(=O)C2(c2ccccc2)c2ccccc2)c2ccccc21 (stereo unspecified)
6,0.56 µg/mL,Cc1ccc(C2(c3ccc(C)cc3)C(=O)N(c3ccccc3)C2c2cn(C)c3ccccc23)cc1 (stereo unspecified)
7,0.6 µg/mL,Cc1ccc(N2C(=O)C(c3ccc(C)cc3)(c3ccc(C)cc3)C2c2cn(C)c3ccccc23)cc1 (stereo unspecified)
8,0.63 µg/mL,CCOc1ccc(N2C(=O)C(c3ccc(C)cc3)(c3ccc(C)cc3)C2c2cn(C)c3ccccc23)cc1 (stereo unspecified)
9,0.57 µg/mL,Cc1ccc(C2(c3ccc(C)cc3)C(=O)N(c3ccc(Cl)cc3)C2c2cn(C)c3ccccc23)cc1 (stereo unspecified)

# The next lines start with the molecule.
row,SMILES,IC50
1,Cn1cc(/C=N/c2ccccc2)c2ccccc21,0.76 µg/mL
2,Cc1ccc(/N=C/c2cn(C)c3ccccc23)cc1,0.66 µg/mL
3,CCOc1ccc(/N=C/c2cn(C)c3ccccc23)cc1,0.88 µg/mL
4,Cn1cc(/C=N/c2ccc(Cl)cc2)c2ccccc21,0.58 µg/mL
5,COc1ccc(/N=C/c2cn(C)c3ccccc23)cc1,0.92 µg/mL
6,Cc1ccccc1/N=C/c1cn(C)c2ccccc12,0.57 µg/mL
7,Cn1cc(/C=N/Cc2ccccc2)c2ccccc21,0.71 µg/mL
